ChEMBL document CHEMBL1201862, “PubChem BioAssay data set” (2004)
Active and inactive are the calls of the source.

Assays:
[1] = blockade of melanocortin 4 receptor signaling – cell-based, plate reader, cherry pick, counter-screen for LGR2 antagonist project, dose response (AID 743444); type: functional;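 note: transfected HEK 293 cells stimulated with alpha-MSH peptide; potency of inhibitors of the alpha-MSH evoked signal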
[2] = blockers of bursicon-stimulated LGR2 cAMP reporter – cell-based, HEK293, CRE-luciferase reporter, cherry pick, set 2, dose response (AID 743343); type: functional;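 note: transfected cells were stimulated with diluted bursicon conditioned medium after compound addition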
[3] = target: T1, DNA repair protein RAD52 homolog (Homo sapiens, UniProt P43351); type: functional, biochemical
T1 sequence (P43351 whole entry): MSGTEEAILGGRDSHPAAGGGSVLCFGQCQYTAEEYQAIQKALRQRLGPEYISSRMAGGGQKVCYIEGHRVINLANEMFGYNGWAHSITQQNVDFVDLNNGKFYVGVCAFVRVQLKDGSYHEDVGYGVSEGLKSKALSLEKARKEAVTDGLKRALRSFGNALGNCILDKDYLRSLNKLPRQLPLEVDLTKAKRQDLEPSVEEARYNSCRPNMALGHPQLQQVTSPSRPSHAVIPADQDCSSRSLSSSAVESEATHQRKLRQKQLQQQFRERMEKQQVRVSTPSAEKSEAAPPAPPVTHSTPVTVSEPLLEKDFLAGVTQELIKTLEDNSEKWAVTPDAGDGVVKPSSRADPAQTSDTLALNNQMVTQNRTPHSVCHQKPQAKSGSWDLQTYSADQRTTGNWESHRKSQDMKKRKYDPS

[4] = target: T2, Ubiquitin-conjugating enzyme E2 N (Homo sapiens, UniProt P61088); type: functional;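 note: Dose-response confirmation in a TR-FRET assay detecting UBC13-driven polyubiquitin chain formation, inhibition measured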
T2 sequence (P61088 whole entry): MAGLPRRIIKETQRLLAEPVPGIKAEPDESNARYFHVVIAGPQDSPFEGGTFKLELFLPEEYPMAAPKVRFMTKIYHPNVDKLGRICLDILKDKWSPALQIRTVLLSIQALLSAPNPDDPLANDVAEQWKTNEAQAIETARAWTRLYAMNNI

[5] = target: DNA repair and recombination protein RAD54-like (Homo sapiens, UniProt Q92698); assay: RAD54 Holliday junction migration blockers – biochemical, fluorescence, cherry-picked samples, dose series, confirmation (AID 651657); type: functional
[6] = viability loss in HEK293 cells – cell-based, plate reader, cherry-picked samples, cytotoxicity control, dose response (AID 743446); type: functional
[7] = cytotoxicity toward MDA-MB-231 breast cancer cells – cell-based, CellTiter-Glo luminescence, cherry-pick, cytotoxicity control for RAD54 inhibitor project, dose response (AID 651692); type: functional
[8] = A549 cell cytotoxicity, dose response, cytotoxicity control, plate reader, cherry-pick, antagonist series (AID 743412); type: functional, cell-based
[9] = toxicity toward HepG2 liver cells – cell-based, plate reader, cherry-pick, antagonist series, cytotoxicity control, dose response (AID 743416); type: functional
[10] = target: T3, High affinity choline transporter 1 (Homo sapiens, UniProt Q9GZV3); assay: human choline transporter radiolabel uptake blockers – cell-based, 3H-choline uptake, CHT LV-AA trafficking mutant, CRC, dose response (AID 602208); type: functional
T3 sequence (Q9GZV3 whole entry): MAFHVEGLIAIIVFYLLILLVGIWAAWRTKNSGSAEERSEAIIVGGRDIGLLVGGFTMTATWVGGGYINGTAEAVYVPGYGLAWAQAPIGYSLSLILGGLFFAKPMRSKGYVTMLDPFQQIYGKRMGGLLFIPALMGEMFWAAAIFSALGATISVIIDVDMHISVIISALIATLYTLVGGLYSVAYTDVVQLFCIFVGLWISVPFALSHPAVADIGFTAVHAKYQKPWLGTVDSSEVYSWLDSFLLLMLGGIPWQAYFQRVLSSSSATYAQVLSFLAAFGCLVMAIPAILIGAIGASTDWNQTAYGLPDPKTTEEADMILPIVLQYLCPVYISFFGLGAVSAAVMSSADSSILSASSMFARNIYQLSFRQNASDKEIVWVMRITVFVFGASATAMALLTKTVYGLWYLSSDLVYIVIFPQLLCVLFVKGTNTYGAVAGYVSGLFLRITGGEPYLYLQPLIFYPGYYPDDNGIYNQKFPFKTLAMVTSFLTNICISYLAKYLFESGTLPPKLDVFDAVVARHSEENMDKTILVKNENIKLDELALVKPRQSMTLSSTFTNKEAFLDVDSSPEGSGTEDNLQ

[11] = target: T3, High affinity choline transporter 1; assay: human choline transporter blockers, potency – cell-based, 10-point CRC, membrane potential dye, dose response (AID 588401); type: functional;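 note: membrane potential dye fluorescence of choline-evoked depolarization via CHT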
[12] = target: T3, High affinity choline transporter 1; assay: human choline transporter blockers, potency – cell-based, 5-point CRC, membrane potential dye, dose response (AID 504840); type: functional
[13] = target: Nuclear receptor subfamily 5 group A member 2 (Homo sapiens, UniProt O00482); type: functional, cell-based;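 note: HEK293T cells transfected with LRH-1 and a StAR promoter luciferase reporter; potency for inhibitors that lower LRH-1 driven reporter light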
[14] = nonselective StAR promoter luciferase inhibitors – cell-based, luminescence, luciferase reporter, counter-screen for LRH-1 inverse agonist project, dose response (AID 651969); type: functional
Steroidogenic factor 1 = Steroidogenic factor 1 (Homo sapiens, UniProt Q13285); assay: Counterscreen for inverse agonists of the liver receptor homolog-1 (LRH-1; NR5A2): Luminescence-based cell-based high throughput dose response assay to identify inverse agonists of the Steroidogenic Factor 1 Nuclear Receptor (SF1; NR5A1).; type: functional
[15] = bead-based luminescence quenchers, dual-tagged ARNT – biochemical, AlphaScreen, cherry-pick, artefact control for ARNT-TACC3 interaction inhibitor project, dose response (AID 651705); type: functional;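 note: AlphaScreen bead proximity signal that flags compounds interfering with the detection technology; potency reflects signal decrease which marks the compound as an assay artifact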
[16] = reduction of Shn3 3'UTR-driven luciferase in osteoblasts – cell-based, Clone20 osteoblasts, firefly luciferase, cherry-picked, dose response (AID 624132); type: functional;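 note: firefly luciferase luminescence from reporter carrying the Shn3 3'UTR in osteoblasts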
HEK293 [17] = assay: cells; type: functional, cell-based; conditions: Homo sapiens
[18] = loss of viability in HepG2 cells – cell-based, CellTiter-Glo, cherry-picked, cytotoxicity control for Shn3 inhibitor project, dose response (AID 624134); type: functional
Protein Wnt-3a = Protein Wnt-3a (Mus musculus, UniProt P27467); assay: antagonism of Wnt3a pathway luciferase reporter – Wnt-LIGHT cells, luminescence, selectivity assay for Gli-SUFU antagonist project, dose response (AID 651570); type: functional; conditions: read-out: IC50_Mean;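 note: Wnt-LIGHT reporter cells stimulated with conditioned medium from Wnt3a-producing cells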
[19] = target: Nucleotide-binding oligomerization domain-containing protein 2 (Homo sapiens, UniProt Q9HC29); assay: inhibition of NOD2-driven NF-kB reporter – cell-based, luminescence, uHTS, HEK293 (AID 1566); type: functional
HEK293 [20] = assay: cells; type: functional, cell-based; conditions: Homo sapiens; remark: listed apart in the source
HEK293 [21] = assay: inhibition of NOD1-driven NF-kB reporter – cell-based, luminescence, uHTS, primary screen (AID 1578); type: functional; conditions: Homo sapiens
HEK293 [22] = assay: cells; type: functional, cell-based; conditions: Homo sapiens; remark: listed apart in the source
[23] = non-specific 3'UTR reporter inhibition in Clone20-Shn3RL – cell-based, Renilla luciferase, cherry-picked, counter-screen for Shn3 inhibitor project, dose response (AID 624133); type: functional
[24] = target: Long-chain-fatty-acid--AMP ligase FadD28 (Mycobacterium tuberculosis, UniProt P9WQ59); assay: Fluorescence polarization aasay to screen for inhibitors that compete for the binding of FadD28 to a bisubstrate Measured in Biochemical System Using Plate Reader - 2147-01_Inhibitor_Dose_CherryPick_Activity.; type: functional, Mycobacterium tuberculosis H37Rv
[25] = target: Benomyl/methotrexate resistance protein (Candida albicans, UniProt P28873); assay: Candida albicans Mdr1 pump inhibition curves – singleplex, Cherry Pick1 hits, dose response (AID 588608); type: functional
INS1 = assay: INS-1E survival protection against cytokine death – cell-based, luminescence, retest, dose response (AID 449756); type: functional; conditions: Rattus norvegicus;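 note: cell death triggered by IL-1 beta plus TNF-alpha plus IFN-gamma mixture; protective hits raise ATP signal compared with cytokine alone wells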
[26] = HEK-293T viability loss after treatment – luminescence, T-cell screen hits, cytotoxicity control for TCR NF-kB inhibitor project, dose response (AID 489026); type: functional, cell-based;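 note: cells exposed to compound about 14 hours before the viability readout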
[27] = viability of HCT116 lacking mutant beta-catenin – cell-based, human colon tumor, dose response (AID 1045); type: functional;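 note: HCT116 colon tumor cells with beta catenin knocked out; cells exposed to compound for 60 hours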
[28] = NIH-3T3 fibroblast cytotoxicity, dose response, cytotoxicity control, cell-based, fluorescence, Alamar Blue, secondary assay (AID 2327); type: functional;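 note: NIH-3T3 mouse fibroblasts cultured with fluconazole at 8 µg/mL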
[29] = viability of PTEN-deleted HCT116 cells – cell-based, HCT116 PTEN knockout, dose response (AID 1047); type: functional;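 note: HCT116 colon tumor cells with PTEN knocked out; cells exposed to compound for 60 hours before readout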
[30] = target: Fructose-bisphosphate aldolase (Mycobacterium tuberculosis, UniProt P9WQA3); assay: Fluorescence-based biochemical high throughput dose response assay for inhibitors of the fructose-bisphosphate aldolase (FBA) of M. tuberculosis.; type: functional
Melanocortin receptor 4 = Melanocortin receptor 4 (Homo sapiens, UniProt P32245); type: functional, cell-based;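 note: Cell-based assay with luminescence read-out, confirmatory dose-response testing for agonist activity of biased ligands at MC4R; human U2OS cells with tagged receptor and beta-arrestin; potency of agonists that increase receptor coupling to beta-arrestin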
cells [31] = type: functional, cell-based
cells [32] = type: functional, cell-based; remark: listed apart in the source
Beta Lactamase = Beta Lactamase (Pseudomonas aeruginosa, UniProt Q932Y6); assay: BLA reporter interference, concentration series – BLA reporter cells, FRET fluorescence, artefact control for TLR9-MyD88 binding inhibitor project, dose response (AID 588341); type: cell-based;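 note: cell based assay in CHO-K1 cells stably expressing beta-lactamase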
[33] = target: T4, Sentrin-specific protease 8 (Homo sapiens, UniProt Q96LD8); type: functional
T4 sequence (Q96LD8 whole entry): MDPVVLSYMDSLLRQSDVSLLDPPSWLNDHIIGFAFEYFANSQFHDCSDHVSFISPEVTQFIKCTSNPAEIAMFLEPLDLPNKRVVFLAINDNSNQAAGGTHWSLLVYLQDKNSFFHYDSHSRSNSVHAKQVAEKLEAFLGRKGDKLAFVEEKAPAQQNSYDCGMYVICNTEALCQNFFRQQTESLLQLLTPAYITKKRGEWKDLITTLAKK

CHO = CHO cell viability loss, potency – luminescence, cytotoxicity control for TLR9-MyD88 binding inhibitor project, dose response (AID 588339); type: functional, cell-based, hamster; conditions: Cricetulus griseus;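 note: CHO cells stably coexpressing TLR9 and MyD88 fusions from primary screen; compound exposure lasted 48 hours before viability readout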
[34] = target: T4, Sentrin-specific protease 8; type: functional; remark: listed apart in the source

Chain of Fructose-bisphosphate aldolase (P9WQA3 whole entry): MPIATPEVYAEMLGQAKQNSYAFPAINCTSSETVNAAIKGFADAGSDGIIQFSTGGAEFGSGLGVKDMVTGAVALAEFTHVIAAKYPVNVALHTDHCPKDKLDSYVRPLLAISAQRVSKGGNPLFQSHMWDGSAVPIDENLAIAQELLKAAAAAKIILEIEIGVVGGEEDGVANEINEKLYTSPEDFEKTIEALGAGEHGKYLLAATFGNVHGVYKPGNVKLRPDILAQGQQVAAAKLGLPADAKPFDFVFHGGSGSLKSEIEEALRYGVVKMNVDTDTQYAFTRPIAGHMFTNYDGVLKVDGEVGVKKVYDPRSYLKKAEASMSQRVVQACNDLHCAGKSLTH
Chain of Steroidogenic factor 1 (Q13285 whole entry): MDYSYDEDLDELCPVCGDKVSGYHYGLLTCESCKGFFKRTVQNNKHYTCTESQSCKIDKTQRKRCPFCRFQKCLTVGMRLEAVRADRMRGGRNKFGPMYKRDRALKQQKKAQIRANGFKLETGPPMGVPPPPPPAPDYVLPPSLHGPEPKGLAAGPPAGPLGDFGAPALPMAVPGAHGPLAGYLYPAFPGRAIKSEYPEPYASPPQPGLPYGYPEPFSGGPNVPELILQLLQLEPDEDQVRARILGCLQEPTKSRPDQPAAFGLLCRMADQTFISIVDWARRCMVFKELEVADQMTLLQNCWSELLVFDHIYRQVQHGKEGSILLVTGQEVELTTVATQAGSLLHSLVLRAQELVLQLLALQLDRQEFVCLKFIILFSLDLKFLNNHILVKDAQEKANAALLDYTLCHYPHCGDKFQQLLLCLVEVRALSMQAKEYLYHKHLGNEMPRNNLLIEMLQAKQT
Chain of Long-chain-fatty-acid--AMP ligase FadD28 (P9WQ59 whole entry): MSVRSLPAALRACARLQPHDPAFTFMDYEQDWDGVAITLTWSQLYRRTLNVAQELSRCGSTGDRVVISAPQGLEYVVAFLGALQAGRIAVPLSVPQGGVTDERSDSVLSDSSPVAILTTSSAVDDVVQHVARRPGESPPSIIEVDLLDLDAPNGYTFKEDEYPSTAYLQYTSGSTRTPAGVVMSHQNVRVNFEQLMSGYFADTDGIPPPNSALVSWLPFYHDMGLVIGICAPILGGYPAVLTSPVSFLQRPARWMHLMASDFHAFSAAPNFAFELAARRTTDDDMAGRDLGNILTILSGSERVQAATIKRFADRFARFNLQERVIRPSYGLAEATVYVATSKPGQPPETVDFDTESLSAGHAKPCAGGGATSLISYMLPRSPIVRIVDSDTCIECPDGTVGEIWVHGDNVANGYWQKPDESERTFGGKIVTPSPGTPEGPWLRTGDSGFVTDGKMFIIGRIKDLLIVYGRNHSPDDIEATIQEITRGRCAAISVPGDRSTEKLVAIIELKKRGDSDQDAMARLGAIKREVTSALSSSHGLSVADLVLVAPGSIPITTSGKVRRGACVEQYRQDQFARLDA
Chain of Protein Wnt-3a (P27467 whole entry, the tested form may be a part): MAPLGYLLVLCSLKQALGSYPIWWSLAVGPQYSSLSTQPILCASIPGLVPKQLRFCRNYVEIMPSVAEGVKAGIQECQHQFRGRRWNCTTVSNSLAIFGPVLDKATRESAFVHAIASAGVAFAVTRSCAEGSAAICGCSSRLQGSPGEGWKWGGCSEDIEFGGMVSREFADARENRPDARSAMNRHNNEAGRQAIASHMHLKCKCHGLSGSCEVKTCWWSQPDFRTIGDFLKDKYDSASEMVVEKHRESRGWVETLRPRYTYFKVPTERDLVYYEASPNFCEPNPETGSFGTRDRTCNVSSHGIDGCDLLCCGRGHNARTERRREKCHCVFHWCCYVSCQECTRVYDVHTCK
Chain of Nuclear receptor subfamily 5 group A member 2 (O00482 whole entry): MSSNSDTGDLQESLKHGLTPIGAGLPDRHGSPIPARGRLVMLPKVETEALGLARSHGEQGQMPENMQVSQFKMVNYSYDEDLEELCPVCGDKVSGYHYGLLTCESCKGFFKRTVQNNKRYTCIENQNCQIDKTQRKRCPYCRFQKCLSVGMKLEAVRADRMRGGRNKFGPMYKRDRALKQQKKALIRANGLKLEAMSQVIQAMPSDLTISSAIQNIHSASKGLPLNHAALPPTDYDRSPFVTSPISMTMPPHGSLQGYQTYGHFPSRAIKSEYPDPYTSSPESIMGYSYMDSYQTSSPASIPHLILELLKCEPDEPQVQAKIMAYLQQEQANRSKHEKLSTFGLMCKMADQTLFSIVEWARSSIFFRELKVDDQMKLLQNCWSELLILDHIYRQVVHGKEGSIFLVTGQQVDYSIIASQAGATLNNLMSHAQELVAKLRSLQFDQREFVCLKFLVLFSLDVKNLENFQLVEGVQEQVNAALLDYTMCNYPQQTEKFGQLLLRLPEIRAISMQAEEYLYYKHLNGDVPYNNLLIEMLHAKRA
Chain of Melanocortin receptor 4 (P32245 whole entry): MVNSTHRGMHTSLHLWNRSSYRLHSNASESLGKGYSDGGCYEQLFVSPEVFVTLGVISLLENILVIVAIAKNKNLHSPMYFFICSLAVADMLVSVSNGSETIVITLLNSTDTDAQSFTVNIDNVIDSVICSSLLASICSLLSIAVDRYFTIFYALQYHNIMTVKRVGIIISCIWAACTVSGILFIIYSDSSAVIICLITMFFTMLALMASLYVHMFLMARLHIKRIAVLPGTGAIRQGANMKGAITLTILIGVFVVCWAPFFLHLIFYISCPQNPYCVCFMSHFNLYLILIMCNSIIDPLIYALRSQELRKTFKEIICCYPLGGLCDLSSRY
Chain of Nucleotide-binding oligomerization domain-containing protein 2 (Q9HC29 whole entry, the tested form may be a part): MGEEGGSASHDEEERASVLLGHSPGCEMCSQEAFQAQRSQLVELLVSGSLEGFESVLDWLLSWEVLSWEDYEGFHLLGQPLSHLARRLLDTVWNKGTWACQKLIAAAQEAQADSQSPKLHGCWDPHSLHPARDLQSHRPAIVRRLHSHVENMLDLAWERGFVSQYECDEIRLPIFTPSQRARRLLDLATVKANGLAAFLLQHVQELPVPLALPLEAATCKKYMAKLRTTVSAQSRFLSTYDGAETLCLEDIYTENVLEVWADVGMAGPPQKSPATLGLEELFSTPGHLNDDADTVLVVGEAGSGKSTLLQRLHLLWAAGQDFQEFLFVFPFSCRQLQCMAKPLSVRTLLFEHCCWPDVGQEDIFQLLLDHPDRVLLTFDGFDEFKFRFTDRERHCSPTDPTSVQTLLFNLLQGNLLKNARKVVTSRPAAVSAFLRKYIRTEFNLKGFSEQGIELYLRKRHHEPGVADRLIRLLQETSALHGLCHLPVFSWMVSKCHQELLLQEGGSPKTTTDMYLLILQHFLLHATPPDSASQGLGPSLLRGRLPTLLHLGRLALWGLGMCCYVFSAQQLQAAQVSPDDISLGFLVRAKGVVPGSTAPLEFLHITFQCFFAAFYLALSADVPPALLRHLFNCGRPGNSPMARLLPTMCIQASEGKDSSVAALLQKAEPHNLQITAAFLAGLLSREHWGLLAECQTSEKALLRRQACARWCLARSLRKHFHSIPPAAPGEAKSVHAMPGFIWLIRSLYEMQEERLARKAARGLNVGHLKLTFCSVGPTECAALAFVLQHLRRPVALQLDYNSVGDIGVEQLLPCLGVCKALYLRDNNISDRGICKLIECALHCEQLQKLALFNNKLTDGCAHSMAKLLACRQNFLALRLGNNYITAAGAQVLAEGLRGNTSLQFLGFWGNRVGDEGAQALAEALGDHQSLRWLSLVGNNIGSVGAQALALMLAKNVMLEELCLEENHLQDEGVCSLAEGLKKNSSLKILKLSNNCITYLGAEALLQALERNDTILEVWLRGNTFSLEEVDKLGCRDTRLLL
Chain of Beta Lactamase (Q932Y6 whole entry): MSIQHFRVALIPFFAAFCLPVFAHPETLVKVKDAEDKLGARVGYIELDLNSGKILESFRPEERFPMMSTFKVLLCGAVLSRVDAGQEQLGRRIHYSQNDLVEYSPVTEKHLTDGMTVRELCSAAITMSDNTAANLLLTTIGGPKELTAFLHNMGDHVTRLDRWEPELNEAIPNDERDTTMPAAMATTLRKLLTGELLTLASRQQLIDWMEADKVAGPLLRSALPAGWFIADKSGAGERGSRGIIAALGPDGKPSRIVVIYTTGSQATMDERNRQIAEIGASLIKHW
Chain of Benomyl/methotrexate resistance protein (P28873 whole entry): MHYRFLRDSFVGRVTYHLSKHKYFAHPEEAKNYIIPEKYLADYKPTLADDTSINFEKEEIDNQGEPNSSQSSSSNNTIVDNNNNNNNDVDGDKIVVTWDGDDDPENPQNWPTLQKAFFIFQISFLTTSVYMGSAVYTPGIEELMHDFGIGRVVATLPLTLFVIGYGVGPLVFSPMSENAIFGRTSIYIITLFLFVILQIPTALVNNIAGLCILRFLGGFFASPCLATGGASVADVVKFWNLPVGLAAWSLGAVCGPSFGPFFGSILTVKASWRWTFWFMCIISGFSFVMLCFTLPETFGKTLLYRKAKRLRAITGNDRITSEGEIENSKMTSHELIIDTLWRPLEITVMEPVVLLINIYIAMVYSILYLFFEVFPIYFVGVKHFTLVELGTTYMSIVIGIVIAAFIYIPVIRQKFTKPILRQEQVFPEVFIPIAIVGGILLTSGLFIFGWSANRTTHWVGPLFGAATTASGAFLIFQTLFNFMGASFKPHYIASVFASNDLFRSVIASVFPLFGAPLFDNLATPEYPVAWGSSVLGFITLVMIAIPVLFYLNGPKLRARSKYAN

COc1ccc(NC(=O)c2ccc(-c3ccc(-c4noc(C)n4)cc3C)cc2)cc1N1CCN(C)CC1
AC50 [1]: 27.6 µM (active)
AC50 [2]: 22.7 µM (active)
AC50 [3]: 7.71 µM (active)
IC50 [4]: > 20 µM (inactive)
AC50 [5]: 79 µM (active)
AC50 [6]: 14.5 µM (active)
AC50 [7]: 14.4 µM (active)
AC50 [8]: 8.17 µM (active)
AC50 [9]: 8.08 µM (active)

O=C(Nc1ccc(S(=O)(=O)Nc2ccccn2)cc1)c1ccc(Cl)cc1Cl
IC50 [10]: 12.8 µM (active)
IC50 [11]: 3.81 µM (active)
IC50 [12]: 4.17 µM (active)

CCc1cc(CNC(=O)c2ccc(OC)c(OC3CCN(C(C)C)CC3)c2)on1
IC50 [10]: 0.0189 µM (active)
IC50 [11]: 0.597 µM (active)
IC50 [12]: 0.316 µM (active)

O=C(Nc1ccc(S(=O)(=O)N2CCOCC2)cc1)c1cccc([N+](=O)[O-])c1
IC50 [13]: 12 µM (inactive)
IC50 [14]: 35.9 µM (inactive)
IC50 (Steroidogenic factor 1): 2.2 µM (active)

CCN(CC)C(=O)c1sc2nc(-c3ccccn3)nc(O)c2c1C
AC50 [15]: 77.1 µM (active)

CC(=O)c1cn(Cc2ccccc2F)c2ccccc12
AC50 [16]: 2.96 µM (active)
IC50 (HEK293 [17]): > 20 µM (inactive)
AC50 [18]: 3.35 µM (active)
IC50 (Protein Wnt-3a): 491 nM (active)
EC50 [19]: 4.05 µM (active)
IC50 (HEK293 [20]): 5 µM (active)
EC50 (HEK293 [21]): 2.96 µM (active)
IC50 (HEK293 [22]): > 20 µM (inactive)
AC50 [23]: 9.56 µM (active)

COc1cccc(NC(=O)Cn2nnc(-c3ccccc3N)n2)c1
AC50 [24]: 66.6 µM (active)

C#CC[N+](C)(C)CCCCCCCCCCCC
EC50 [25]: 312 nM (active)
AC50 (INS1): 4.61 µM (active)
IC50 [26]: > 80 µM (inactive)
EC50 [27]: 3.33 µM (active)
IC50 (Protein Wnt-3a): 279 nM (active)
EC50 [28]: > 160 µM (inconclusive)
EC50 [29]: 2.9 µM (active)

COc1ccc(CCNC(=O)COC(=O)C23CC4CC(CC(Br)(C4)C2)C3)cc1
IC50 [13]: 16.6 µM (inactive)
IC50 [14]: 35.9 µM (inactive)
IC50 (Steroidogenic factor 1): 4.45 µM (active)

O=C(COC(=O)c1cccs1)Nc1nnc(-c2ccccc2)o1
AC50 [15]: 102 µM (active)

Cc1nn(C)cc1-c1cc(C(=O)O)c2ccccc2n1
IC50 [30]: 1.91 µM (active)

COc1cccc(-c2cnc3c(NC(C)=O)cc(-c4ccsc4)cn23)c1
EC50 (Melanocortin receptor 4): 26.2 µM (inactive)

O=C1CCC(=O)c2ccc3c4c(ccc1c24)CC3
IC50 [30]: 1.56 µM (active)

COc1ccc(/C=N/NC(=O)c2ccc(COc3ccccc3Cl)o2)c(OC)c1C
EC50 (Melanocortin receptor 4): > 89.2 µM (inactive)

COC(=O)[C@]12C[C@H](CC(=O)NCCc3ccccc3OC)C(=O)N(Cc3ccc4c(c3)OCO4)C1=C[C@H](COCc1ccccc1)O[C@@H]2C
EC50 (cells [31]): > 29.9 µM (inactive)
IC50 (cells [32]): > 29.9 µM (inactive)

Cc1ccc(SCc2c(C(=O)N/N=C/c3ccoc3)nnn2-c2nonc2N)cc1
AC50 [24]: > 100 µM (inactive)

O=C1Cc2ccccc2C(=O)N1c1ccccc1
IC50 (Beta Lactamase): 3.97 µM (active)
IC50 [33]: > 100 µM (inactive)
IC50 (CHO): > 49.7 µM (inactive)
IC50 [34]: 12.9 µM (active)
